Earlier results on two compounds are cited in US20020192671A1, “Method and system for predicting the biological activity, including toxicology and toxicity, of substances” (priority 2001, published 2002).

For `CC(=O)Nc1ccc(O)cc1` [APAP, acetaminophen], the “toxic effect at high non-therapeutic doses” value is “hepatic and renal failure”.

Regarding `CCOC(=O)C(C)(C)Oc1ccc(Cl)cc1` [Clofibrate], the “effect on P450 4F levels” value in the series on P450 4F is recorded as “reduce the levels of P450 4F”. Moreover, the “effect of chronic treatment in rodents” value with rodents is “hepatomegaly, an increase in hepatic peroxisomes”. For the same compound, the “effect on cytochrome P450 4A levels” value in the series with cytochrome P450 4A is “increase levels of cytochrome P450 4A”.
